Test results from article PMC7034129, “C-2 phenyl replacements to obtain potent quinoline-based Staphylococcus aureus NorA inhibitors” (Journal of Enzyme Inhibition and Medicinal Chemistry, 2020).
Read-outs that look alike come from different tables or passages of the source. Marks after values point to notes of the source that are not given here.

Legend:
SA-1199B [1] = assay: Membrane potential (polarisation) assays, BacLight kit, DiOC2(3); format: cell-based, Staphylococcus aureus; details: 30 min; for depolarised S. aureus membrane: 10 µg/mL
Experimental: Membrane potential assays were carried out by measuring the effect of 1 and 37a on the membrane potential using the BacLight Bacterial Membrane Potential Kit (Molecular Probes, Life Technologies) according to the manufacturer’s instructions. Briefly, SA-1199B was grown in MHB at 37 °C until reaching an OD600 of 0.6. Bacterial cells were then washed in PBS and diluted to 1 × 10^6 CFU/mL with filtered PBS (filter 0.22 µm) in flow cytometry tubes. Ten microliters of 3 mM 3,3-diethyloxacarbocyanine iodide (DiOC2(3) in DMSO) was added to each tube (final concentration 30 µM) and mixed. Then, 1 or 37a from a stock solution in DMSO (10 mg/mL) was added to reach final concentrations of 1, 5, and 10 µg/mL. As positive control, 10 µL of 500 µM carbonyl cyanide m-chlorophenylhydrazone (CCCP, final concentration 5 µM) was used to eradicate the proton gradient by eliminating the membrane potential. The samples were analysed after 30 min by measuring the fluorescence using a cytometer Attune NxT (ThermoFisher Scientific) with a laser emitting at 488 nm and collecting in the green and red channels. The red to green fluorescence ratio was determined and normalised against the emission from the DiOC2(3) blank tube having 1 ml of the bacterial suspension and a final concentration of DiOC2(3) of 30 µM. The results are presented as the percentage of depolarised membranes compared with the drug-free control.
Since efflux pumps need a proton gradient along the bacterial membrane, its modification/disruption can lead to an efflux inhibition. However, this effect cannot be related to a specific EPI activity; on the contrary, it relies on a non-specific interruption of the energy source (protons) that efflux pumps use to extrude their substrates by an antiport mechanism. A typical example of a compound inhibiting efflux pumps activity by this non-specific mechanism is represented by carbonyl cyanide m-chlorophenyl hydrazone (CCCP). […] Membrane polarisation was assessed by cytofluorimeter analysis using the fluorescent probe 3,3-diethyloxacarbocyanine iodide (DiOC2(3)) as its distribution is proton gradient-sensitive.

[2] = tested on: human leukemic monocyte cell line (THP-1); assay: Cell viability assay (ATP bioluminescence); details: ratio between CC50 (THP-1) and minimum EPI concentration able to reduce by 4-fold CPX MIC
Experimental: (§1) THP-1 cells were grown in RPMI 1640 supplemented with 10% heat-inactivated foetal calf serum, 10,000 units of penicillin, and 10 µg of streptomycin/mL overnight to confluence. […] Cell viability was then evaluated using an ATP bioluminescence kit (Via Light kit; Cambrex). Results are expressed as 50% cytotoxic concentration (CC50). The CC50 was defined as the concentration required to reduce the cell number by 50% compared to that for the untreated controls. Each concentration was tested in triplicate.

SA-1199B [3] = tested on: SA-1199B; parameters: method as in PMID 30067360; details: as previously reported; cited from earlier work
[4] = parameters: method as in PMID 30067360; details: in silico and in vitro, mouse liver microsomes 2 h; cited from earlier work
S. aureus SA-1199B = format: cell-based, Staphylococcus aureus; details: for compound concentration reducing the CPX MIC by 4-fold: chequerboard with CPX; for synergistic effect with CPX: compound concentration below 25 µg/mL
Experimental: (§2) MICs assays were performed using broth microdilution method in 96 wells-microtiter plates, following the CLSI guidelines.
(§3) Chequerboard assays and time-kill curves were performed as previously described.

[5] = tested on: human leukemic monocyte cell line (THP-1); parameters: method as in PMID 30067360; details: THP-1 cells; cited from earlier work
[6] = tested on: S. aureus strain SA-1199B (norA+/GrlA mutation); assay: Synergistic assays: compounds at 25 µg/mL with scalar concentrations of CPX; format: cell-based, Staphylococcus aureus; details: compound at 25 µg/mL
Experimental: as §2
(data not shown). […] Worthy of note, among the five active compounds, three were thiophene derivatives (35b, 36b and 37a) displaying their activity regardless of the position of the sulphur atom on the thiophene ring.

SA-1199B [7] = assay: Time-kill curves in combination with CPX; format: cell-based, Staphylococcus aureus; details: 24 h
Experimental: as §3

NorA efflux pump = target: T1, NorA efflux pump (Staphylococcus aureus, UniProt P0A0J7); assay: EtBr efflux assays; format: cell-based; details: read-out: EtBr efflux inhibition
T1 construct: monitoring bacterial fluorescence of SA-1199B, overexpressing norA gene; endogenous in cells; host or cells: Staphylococcus aureus SA-1199B (norA+/GrlA mutation)
T1 sequence (P0A0J7 whole entry): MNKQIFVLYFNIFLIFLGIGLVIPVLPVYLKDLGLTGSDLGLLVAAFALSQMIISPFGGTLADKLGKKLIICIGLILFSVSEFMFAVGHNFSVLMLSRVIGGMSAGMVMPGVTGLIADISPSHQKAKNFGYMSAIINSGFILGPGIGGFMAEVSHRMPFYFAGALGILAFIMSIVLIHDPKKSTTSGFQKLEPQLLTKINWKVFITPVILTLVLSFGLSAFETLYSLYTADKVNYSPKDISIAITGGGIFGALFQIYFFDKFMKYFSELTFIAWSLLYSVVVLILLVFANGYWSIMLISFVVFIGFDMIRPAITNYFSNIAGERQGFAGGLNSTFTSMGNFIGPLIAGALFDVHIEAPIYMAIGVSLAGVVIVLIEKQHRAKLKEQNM
Experimental: The loss of EtBr from S. aureus SA-1199B was determined fluorometrically as previously described. The effect of various concentrations of tested compounds on the EtBr efflux of SA-1199B was compared to that in their absence, allowing the calculation of the percentage reduction in efflux.
Since EtBr is a known NorA substrate resulting fluorescent only when inside bacterial cells, monitoring bacterial fluorescence of SA-1199B, overexpressing norA gene, through a fluorimeter is a fast method to indirectly evaluate NorA inhibition. […] Indeed, we commonly consider as active NorA EPIs those compounds having an EtBr efflux inhibition ≥70%[17]^,[18].

[8] = tested on: S. aureus strain SA-1199 (norA wild-type); assay: Synergistic assay with CPX against norA wild-type strain; format: cell-based, Staphylococcus aureus; details: compound at 25 µg/mL, scalar CPX
Experimental: as §2

Haemolysis assays = format: cell-based
Experimental: Haemolysis assays were performed as previously described.
In order to evaluate the toxic effects of the derivative 37a, haemolysis assays were performed at scalar compound concentrations in comparison with the starting hit 1 (Figure 4).

[9] = Cell viability assay (ATP bioluminescence); details: human
Experimental: as §1

SA-1199B [10] = assay: MIC evaluation of compound alone (broth microdilution); format: cell-based; details: Staphylococcus aureus, read-out: antibacterial activity alone (MIC)
Experimental: as §2
The sum of both FIC values led to a FIC index (FICI) < 0.27 showing a significant synergistic effect as widely recognised for FICI values <0.5[40].

CCN(CC)CCOc1cc(-c2cccs2)nc2ccccc12
melting point: 84 to 86 °C

CCN(CC)CCOc1cc(-c2ccsc2)nc2ccccc12
melting point: 66 to 67 °C

Clc1ccc(-c2cc(OCCN3CCCCC3)c3ccccc3n2)s1
melting point: 99 to 101 °C

CCCOc1ccc(-c2cc(OCCN(CC)CC)c3ccccc3n2)cc1 [Compound 1, reference compound]
depolarised bacterial membrane (SA-1199B [1]; 1 µg/mL): retained a significant depolarising effect | depolarised bacterial membrane (SA-1199B [1]; 5 µg/mL): retained a significant depolarising effect | depolarised S. aureus membrane (SA-1199B [1]): > 50%

CCCOc1ccc(-c2cc(OCCN3CCCCC3)c3cc(OC)ccc3n2)cc1 [Compound 2]
SI, selectivity index [2]: >128 | depolarised bacterial membrane (SA-1199B [3]): about 20% | metabolic stability [4]: good metabolic stability | CPX MIC reduction (S. aureus SA-1199B; compound at 0.39 µg/mL): 2 fold | CC50 [5]: >100^b µg/mL

CCCOc1ccc(-c2cc(OCCN(CC)CC)c3ccccc3n2)nc1.Cl [Compound 30a, N,N-diethyl-2-{[2–(5-propoxypyridin-2-yl)quinolin-4-yl]oxy}ethanamine hydrochloride]
reduction of the CPX MIC [6]: 4 fold | melting point: 212 to 213 °C | compound concentration reducing the CPX MIC by 4-fold (S. aureus SA-1199B): 6.25 µg/mL

CCCOc1ccc(-c2cc(OCCN3CCCCC3)c3ccccc3n2)nc1 [Compound 30b, 4–(2-Piperidin-1-ylethoxy)-2–(5-propoxypyridin-2-yl)quinoline]
reduction of the CPX MIC [6]: 4 fold | melting point: 90 to 91 °C | compound concentration reducing the CPX MIC by 4-fold (S. aureus SA-1199B): 12.5 µg/mL

CCCOc1ccc(-c2cc(OCCN(CC)CC)c3ccccc3n2)cn1.Cl [Compound 31a, N,N-diethyl-2-{[2–(6-propoxypyridin-3-yl)quinolin-4-yl]oxy}ethanamine hydrochloride]
synergistic effect / EPI activity with CPX [6]: lost EPI activity | melting point: 188 to 190 °C

CCCOc1ccc(-c2cc(OCCN3CCCCC3)c3ccccc3n2)cn1.Cl [Compound 31b, 4–(2-Piperidin-1-ylethoxy)-2–(6-propoxypyridin-3-yl)quinoline hydrochloride]
synergistic effect / EPI activity with CPX [6]: lost EPI activity | melting point: 223 to 224 °C

CCN(CC)CCOc1cc(-c2ccccn2)nc2ccccc12.Cl [Compound 32a, N,N-diethyl-2-[(2-pyridin-2-ylquinolin-4-yl)oxy]ethanamine hydrochloride]
synergistic effect / EPI activity with CPX [6]: lost EPI activity | melting point: 173 to 174 °C

c1ccc(-c2cc(OCCN3CCCCC3)c3ccccc3n2)nc1 [Compound 32b, 4–(2-Piperidin-1-ylethoxy)-2-pyridin-2-ylquinoline]
synergistic effect / EPI activity with CPX [6]: lost EPI activity | melting point: 77 to 79.5 °C

CCN(CC)CCOc1cc(-c2cccnc2)nc2ccccc12.Cl [Compound 33a, N,N-diethyl-2-[(2-pyridin-3-ylquinolin-4-yl)oxy]ethanamine hydrochloride]
synergistic effect / EPI activity with CPX [6]: lost EPI activity | melting point: 181 to 182 °C

c1cncc(-c2cc(OCCN3CCCCC3)c3ccccc3n2)c1 [Compound 33b, 4–(2-Piperidin-1-ylethoxy)-2-pyridin-3-ylquinoline]
synergistic effect / EPI activity with CPX [6]: lost EPI activity | melting point: 101.5 to 102.5 °C

CCN(CC)CCOc1cc(-c2ccncc2)nc2ccccc12 [Compound 34a, N,N-diethyl-2-[(2-pyridin-4-ylquinolin-4-yl)oxy]ethanamine]
synergistic effect / EPI activity with CPX [6]: lost EPI activity | melting point: 73.5 to 74 °C

Cl.c1ccc2c(OCCN3CCCCC3)cc(-c3ccncc3)nc2c1 [Compound 34b, 4–(2-Piperidin-1-ylethoxy)-2-pyridin-4-ylquinoline hydrochloride]
synergistic effect / EPI activity with CPX [6]: lost EPI activity | melting point: 183.5 to 185 °C

Cl.c1csc(-c2cc(OCCN3CCCCC3)c3ccccc3n2)c1 [Compound 35b, 4–(2-piperidin-1-ylethoxy)-2–(2-thienyl)quinoline hydrochloride]
reduction of the CPX MIC [6]: 4 fold | melting point: 208 to 209.5 °C | synergistic effect with CPX (S. aureus SA-1199B): did not retain any synergistic effect

c1ccc2c(OCCN3CCCCC3)cc(-c3ccsc3)nc2c1 [Compound 36b, 4–(2-Piperidin-1-ylethoxy)-2–(3-thienyl)quinoline]
reduction of the CPX MIC [6]: 4 fold | melting point: 109.5 to 111 °C | synergistic effect with CPX (S. aureus SA-1199B): did not retain any synergistic effect

CCN(CC)CCOc1cc(-c2ccc(Cl)s2)nc2ccccc12.Cl [Compound 37a, (2-{[2–(5-Chloro-2-thienyl)quinolin-4-yl]oxy}ethyl)diethylamine hydrochloride]
reduction of the CPX MIC [6]: 32 fold | bactericidal activity of combination (time-kill) (SA-1199B [7]; 37a at 3.13 and 6.25 µg/mL + CPX at its MIC): strongly significant and definitely higher bactericidal activity than that shown by CPX alone | bactericidal effect of combination (time-kill) (SA-1199B [7]; 37a at 3.13 and 6.25 µg/mL + CPX at ¼ MIC): the same bactericidal effect as CPX tested at its MIC | inhibition at 50 µM (NorA efflux pump): 74.3 ± 3.5% | depolarised bacterial membrane (SA-1199B [1]; 1 µg/mL): about 20% | depolarised bacterial membrane (SA-1199B [1]; 5 µg/mL): about 20% | depolarised S. aureus membrane (SA-1199B [1]): > 50% | synergistic effect with CPX [8]: did not exhibit any significant synergistic effect | haemolytic effect (Haemolysis assays; 20 µg/mL): about 10% | haemolytic effect relative to starting hit 1 (Haemolysis assays; 20 µg/mL): 3 fold | haemolytic activity (Haemolysis assays; concentrations ≤ 5 µg/mL): below 2% | melting point: 189 to 191 °C | CC50 at 24 h [9]: 6.33 µg/mL | SI, selectivity index [2]: 16.2 | MIC (SA-1199B [10]): > 25 µg/mL | concentration reducing CPX MIC, fold lower than own MIC (S. aureus SA-1199B): ≥ 64 fold | FIC (MIC in combination/MIC alone) (S. aureus SA-1199B; 37a + CPX): < 0.0156 | FIC index (FICI) (S. aureus SA-1199B; 37a + CPX): < 0.27 | compound concentration reducing the CPX MIC by 4-fold (S. aureus SA-1199B): 0.39 µg/mL | CPX MIC in combination with compound (S. aureus SA-1199B; with 37a): 2.5 µg/mL
